Test results reported in article PMC11882969 (Nature Communications, 2025).

Biological target: CB1 (rCB1) (Rattus norvegicus, UniProt P20272)
Test: Single-point radioligand displacement screen
Assay type: binding
Conditions: for % 1H-CP-55,940 displacement (mean) from single point screen: 10 µM, 1 µM or 300 nM by cell colour (not visible); for rep1_displacement / rep2_displacement / rep3_displacement: Figure 1c source data; for rep1_displacement: replicate 1; for rep2_displacement: replicate 2; for rep3_displacement: replicate 3

Chain of CB1 (rCB1) (P20272 whole entry): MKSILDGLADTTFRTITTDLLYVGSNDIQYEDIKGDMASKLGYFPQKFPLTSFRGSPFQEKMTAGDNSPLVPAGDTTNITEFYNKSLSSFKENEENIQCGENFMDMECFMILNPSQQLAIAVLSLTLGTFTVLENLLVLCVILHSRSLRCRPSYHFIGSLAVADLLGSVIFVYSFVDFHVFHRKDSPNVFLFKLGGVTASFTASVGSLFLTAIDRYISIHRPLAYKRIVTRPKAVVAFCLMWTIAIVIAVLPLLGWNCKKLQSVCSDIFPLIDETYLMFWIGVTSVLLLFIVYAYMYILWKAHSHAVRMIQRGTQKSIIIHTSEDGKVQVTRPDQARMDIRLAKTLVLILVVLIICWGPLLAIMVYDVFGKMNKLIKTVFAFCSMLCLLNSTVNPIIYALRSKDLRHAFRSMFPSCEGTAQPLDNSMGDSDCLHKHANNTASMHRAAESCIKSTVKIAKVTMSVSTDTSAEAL

Structure (SMILES)	% 1H-CP-55,940 displacement (mean) from single point screen	rep1_displacement	rep2_displacement	rep3_displacement
N#Cc1cccc(-n2ccc(C(=O)OCC3CSc4ccccc4O3)n2)c1 (stereo not shown) [compound 2666]	30.46%			
Cc1c(C(=O)OCC2CSc3ccccc3O2)cnn1-c1ccccc1 (stereo not shown) [compound 3189]	46.85%			
COC(=O)C(NC(=O)c1cc(C)n(-c2ccccc2)n1)c1cccnc1 (stereo not shown) [compound 03453]	-5.45%			
O=C(OCc1nc2ccccc2o1)c1cnn(Cc2ccccc2Cl)c1 [compound 3652]	32.00%			
Cc1c(C(=O)N(C)CC2COc3ccccc3O2)cnn1-c1ccccc1 (stereo not shown) [compound 4148]	11.41%			
Cc1c(C(=O)OCC2CN(c3ccccc3)C(=O)O2)cnn1Cc1ccccc1 (stereo not shown) [compound 5081]	31.79%			
O=C(NCC1CSc2ccccc2O1)c1ncc(Cc2ccccc2)o1 (stereo not shown) [compound 5752]	24.02%			
Cc1nc(CC2CC2)oc1-c1nc(-c2ccc3c(c2)OCO3)no1 [compound 5962]	10.45%			
Cc1c(C(=O)NCC2CSc3ccccc3O2)cnn1-c1ccc(C(F)(F)F)cc1 (stereo not shown) [compound 6445]	46.11%			
COC(=O)C(NC(=O)c1ccc(-c2ccccc2F)o1)c1ccsc1 (stereo not shown) [compound 07099]	3.88%			
Cc1c(C(=O)OCc2nc3ccccc3o2)cnn1Cc1ccccc1 [compound 8354]	59.03%			
O=C1C(=O)N(C23CC4CC(CC(C4)C2)C3)C(=O)N1CC1CCC(C(F)(F)F)CC1 (stereo not shown) [compound 8441]	47.91%	51.8	42.6	49.3
COc1ccc(Cc2noc(-c3oc(CC4CC4)nc3C)n2)cc1 [compound 8861]	15.76%			
Fc1ccc(C(F)(F)c2noc(-c3cnnn3-c3cccc(F)c3)n2)cc1 [compound 9217]	46.71%	49.7	46.4	44.1
COc1ccc(OC(C)(C)c2nnc(-c3nn(C)c(=O)c4ccccc34)o2)cc1 [compound 9753]	51.55%			
Cc1nc(CC2CC2)oc1-c1nc(Cc2ccc(OCc3ccccn3)cc2)no1 [compound 9841]	19.42%			
CCOC(=O)CCC(OC(=O)c1nc(C)n(-c2ccccc2)n1)c1ccccc1 (stereo not shown) [compound 11070]	34.00%	33.8	28.7	39.6
COC(=O)C(NC(=O)c1cc(C)n(-c2cccc(F)c2)n1)c1ccc2c(c1)CCO2 (stereo not shown) [compound 12208]	-5.83%			
COc1cc(OC)cc(-c2nc([C@H](OC)c3ccc(Br)cc3)no2)c1 [compound 13596]	47.56%	46.1	49	
COC(=O)C(NC(=O)c1cc(C)n(-c2cccc(Cl)c2)n1)c1ccc(C(F)(F)F)cc1 (stereo not shown) [compound 14083]	24.29%			
O=C1CN(C(=O)c2ccc(Cl)c3cccnc23)CN1Cc1ccccc1 [compound 14861]	15.10%	15	15.3	15
Cc1cc(C(=O)NC(CCO)Cc2ccccc2)nn1-c1ccc(F)cc1 (stereo not shown) [compound 15032]	-0.53%			
Cc1cc(C(=O)NC(c2ccc(Cl)cc2)c2ccn(C)n2)nn1-c1cccc(F)c1 (stereo not shown) [compound 17429]	23.12%			
Cn1cc2c(n1)CCCC2c1nc(C2(c3cccc(C(F)(F)F)c3)CC2)no1 (stereo not shown) [compound 18525]	41.38%	39.7	46.2	38.2
COC(=O)C(NC(=O)c1coc(C2CCOCC2)n1)c1cccs1 (stereo not shown) [compound 19213]	1.83%			
Cc1c(C(=O)NCC2CSc3ccccc3O2)nnn1Cc1ccc(F)cc1 (stereo not shown) [compound 22139]	13.03%			
COC(=O)c1nc(N(C)CCOc2ccc(Br)cc2)sc1C [compound 22875]	27.03%	25.7	29.1	26.3
O=C(OCC1CSc2ccccc2O1)c1cn(Cc2cccc(F)c2)nn1 (stereo not shown) [compound 23346]	25.27%			

Structure (SMILES)	% 1H-CP-55,940 displacement (mean) from single point screen	rep1_displacement	rep2_displacement	rep3_displacement
Fc1ccc(-n2ncc3c(SCc4cc(-c5ccco5)on4)ncnc32)cc1 [compound 23397]	17.08%	23	15.9	12.4
COC(=O)c1cc(C(=O)N2CCc3ccc(Cl)cc3C2)cc([N+](=O)[O-])c1 [compound 25719]	24.96%	30.1	24.6	20.2
Cc1ccc(OCCC(=O)N2CC3CCCN3c3ccccc32)c(C)c1 (stereo not shown) [compound 26701]	35.34%	39	34.5	32.6
CC1C(C(F)(F)F)CCN1C(=O)c1csc(N(C)c2ccccc2)n1 (stereo not shown) [compound 27005]	32.20%	31.7	30.7	34.2
O=C(OCC1CSc2ccccc2O1)c1ccc(Cn2cccc2)cc1 (stereo not shown) [compound 30177]	18.40%			
Cn1nc(-c2nnc(C(C)(C)Oc3ccc(F)cc3)o2)c2ccccc2c1=O [compound 31486]	32.26%			
Cc1c(C(=O)OCC2COc3ccccc3O2)cnn1Cc1ccccc1 (stereo not shown) [compound 32445]	35.36%			
N#CCCn1ncc(C(=O)N2CCC(F)(c3cc(F)cc(F)c3)C2)c1-c1ccccc1 (stereo not shown) [compound 34734]	15.43%	21.6	10.3	14.4
CC(Oc1ccccc1)c1noc(-c2ccc(=O)n(-c3ccc(F)cc3)n2)n1 (stereo not shown) [compound 34765]	18.38%	25	13.3	16.8
N#Cc1cccc(OCc2ccoc2C(=O)OCC2CSc3ccccc3O2)c1 (stereo not shown) [compound 35424]	60.22%			
Cc1ccn2cc(C(=O)N3CCc4c(F)cc(Br)cc4C3)nc2c1 [compound 35971]	13.78%	9.7	11.6	20
CC(C)n1nc(-c2nnc(C(C)(C)Oc3ccc(Cl)cc3)o2)c2ccccc2c1=O [compound 41360]	41.24%			
O=C(c1ccccc1CS(=O)(=O)c1ccccc1)N1CCC(c2cccc(F)c2)C1 (stereo not shown) [compound 41949]	33.74%	30	36.7	34.6
O=C1CN(C(=O)c2cc3cc(Br)ccc3o2)CN1Cc1ccccc1 [compound 46675]	22.64%	22.6		
O=C(OCc1nc2ccccc2s1)c1c2c(nc3ccccc13)CCC2 [compound 47700]	27.24%	29.5	33.4	18.9
COCCOc1cc(C(=O)N2CCCC(CC3CCOC3)C2)nc2ccccc12 (stereo not shown) [compound 49667]	4.27%	10.3	4.1	-1.6
O=C(OCC1CSc2ccccc2O1)c1cc(Oc2ccccc2)ccn1 (stereo not shown) [compound 50267]	15.53%			
C=CCn1c(SC(C)COC)nc2cc(-c3ccccc3)sc2c1=O (stereo not shown) [compound 50746]	26.93%	27.8	26.8	26.1
Cc1nc(CC2CC2)oc1-c1nc(Cc2cc(Br)c3c(c2)OCO3)no1 [compound 53217]	14.33%			
COC(=O)C(NC(=O)c1cn(Cc2ccccc2)nn1)c1cccs1 (stereo not shown) [compound 54064]	4.29%			
CN(CCOc1ccc(Br)cc1)c1ncnc(-c2ccccc2)n1 [compound 55901]	23.61%	24.5	26.2	20.1
CC(C)c1ncc(Cl)c(C(=O)N2CC(Cc3ccccc3Cl)C2)n1 [compound 56513]	36.74%	17.6	25.1	67.5
COC(=O)[C@@H](NC(=O)c1cc(C)n(-c2cccc(F)c2)n1)c1ccc(OC)cc1 [compound 59513]	10.54%			
O=c1c2cnn(-c3ccccc3)c2nnn1Cc1cc(Cl)ccc1Cl [compound 59552]	38.03%	36.6	38.4	39.1
COC(=O)C(NC(=O)c1cc(C)n(-c2ccccc2)n1)c1cccs1 (stereo not shown) [compound 59643]	4.63%			
COC(=O)C(NC(=O)c1csc(Cc2ccccc2)n1)c1cccs1 (stereo not shown) [compound 61815]	32.97%			
Cc1c(C(=O)OCC2CSc3ccccc3O2)nnn1Cc1ccc(F)cc1 (stereo not shown) [compound 61926]	64.39%			
